Laboratory results reported in PubChem BioAssay AID248 (DTP/NCI, 2004).
Values joined by “and” are separate entries in the source; they are usually repeats but may differ in a detail not shown here. Identical values can stand only once. Toxic doses and inconclusive results are not listed. Rule as the data show it: active = T/C of 150% or more; inactive = T/C below 125%.

Test system: L1210 leukemia ip in BDF1 mice, survival T/C
Assay: NCI In Vivo Anticancer Drug Screen. Data for tumor model L1210 Leukemia (intraperitoneal) in B6D2F1 (BDF1) mice
Conditions: higher = longer survival
Outline: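 Transplantable tumor model; survival measured in treated vs vehicle control mice. Value = treated/control.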

[1] = endpoint: mean survival time, dose: 100.0 mg/kg/injection, schedule: Q04DX003 (ip), vehicle: saline with Tween-80
[2] = endpoint: mean survival time, dose: 200.0 mg/kg/injection, schedule: Q04DX003 (ip), vehicle: saline with Tween-80
[3] = endpoint: mean survival time, dose: 400.0 mg/kg/injection, schedule: Q04DX003 (ip), vehicle: saline with Tween-80
[4] = endpoint: mean survival time, dose: 100.0 mg/kg/injection, schedule: Q01DX009 (ip), vehicle: saline

Measured: T/C

CN(C)C(=O)CCCCC(=O)N(C)C
inactive: endpoint: mean survival time, dose: 100.0 mg/kg/injection, schedule: Q04DX002 (ip), vehicle: saline 94 % of control | endpoint: mean survival time, dose: 200.0 mg/kg/injection, schedule: Q04DX002 (ip), vehicle: saline 86 % of control | endpoint: mean survival time, dose: 400.0 mg/kg/injection, schedule: Q04DX002 (ip), vehicle: saline 105 % of control

O=[N+]([O-])c1ccc(N/N=C(\Cc2ccccc2)CC(O)(C(F)(F)F)C(F)(F)F)c([N+](=O)[O-])c1
inactive: endpoint: mean survival time, dose: 25.0 mg/kg/injection, schedule: Q01DX009 (ip), vehicle: gum acacia 92 % of control | endpoint: mean survival time, dose: 50.0 mg/kg/injection, schedule: Q01DX009 (ip), vehicle: gum acacia 96 % of control | endpoint: mean survival time, dose: 100.0 mg/kg/injection, schedule: Q01DX001 (ip), vehicle: gum acacia 106 % of control | endpoint: mean survival time, dose: 100.0 mg/kg/injection, schedule: Q01DX009 (ip), vehicle: gum acacia 98 % of control | endpoint: mean survival time, dose: 200.0 mg/kg/injection, schedule: Q01DX001 (ip), vehicle: gum acacia 100 % of control | endpoint: mean survival time, dose: 200.0 mg/kg/injection, schedule: Q01DX009 (ip), vehicle: gum acacia 94 % of control | endpoint: mean survival time, dose: 400.0 mg/kg/injection, schedule: Q01DX001 (ip), vehicle: gum acacia 98 % of control | endpoint: mean survival time, dose: 400.0 mg/kg/injection, schedule: Q01DX009 (ip), vehicle: gum acacia 93 % of control

O=C(Nc1ncc([N+](=O)[O-])s1)c1ccc([N+](=O)[O-])cc1Cl
inactive: endpoint: mean survival time, dose: 5.0 mg/kg/injection, schedule: Q01DX009 (ip), vehicle: Klucel (hydroxypropylcellulose) (HPC) 94 % of control | endpoint: mean survival time, dose: 5.0 mg/kg/injection, schedule: Q04DX003 (ip), vehicle: Klucel (hydroxypropylcellulose) (HPC) 100 % of control | endpoint: mean survival time, dose: 10.0 mg/kg/injection, schedule: Q01DX009 (ip), vehicle: Klucel (hydroxypropylcellulose) (HPC) 92 % of control | endpoint: mean survival time, dose: 10.0 mg/kg/injection, schedule: Q04DX003 (ip), vehicle: Klucel (hydroxypropylcellulose) (HPC) 95 % of control | endpoint: mean survival time, dose: 20.0 mg/kg/injection, schedule: Q01DX009 (ip), vehicle: Klucel (hydroxypropylcellulose) (HPC) 99 % of control | endpoint: mean survival time, dose: 20.0 mg/kg/injection, schedule: Q04DX003 (ip), vehicle: Klucel (hydroxypropylcellulose) (HPC) 94 % of control

COc1c2ccccc2cc2ccccc12
inactive: endpoint: mean survival time, dose: 50.0 mg/kg/injection, schedule: Q01DX009 (ip), vehicle: acetone 94 % of control | endpoint: mean survival time, dose: 100.0 mg/kg/injection, schedule: Q01DX009 (ip), vehicle: acetone 92 % of control | endpoint: mean survival time, dose: 200.0 mg/kg/injection, schedule: Q01DX009 (ip), vehicle: acetone 89 % of control

C=Cc1ccccn1
inactive: endpoint: mean survival time, dose: 75.0 mg/kg/injection, schedule: Q01DX001 (ip), vehicle: saline 98 % of control | endpoint: mean survival time, dose: 150.0 mg/kg/injection, schedule: Q01DX001 (ip), vehicle: saline 102 % of control | endpoint: mean survival time, dose: 300.0 mg/kg/injection, schedule: Q01DX001 (ip), vehicle: saline 97 % of control

CCCCCCCCCCCCCCCCCC(=O)NCCS
inactive: endpoint: mean survival time, dose: 25.0 mg/kg/injection, schedule: Q04DX002 (ip), vehicle: saline with Tween-80 101 % of control | endpoint: mean survival time, dose: 50.0 mg/kg/injection, schedule: Q04DX002 (ip), vehicle: saline with Tween-80 89 % of control | endpoint: mean survival time, dose: 100.0 mg/kg/injection, schedule: Q04DX002 (ip), vehicle: saline with Tween-80 104 % of control

O=C(O)CCCCCCCCC1CC(F)(F)C(F)(F)S1 (centres undefined)
inactive: [1] 92 % of control | [2] 96 % of control | [3] 92 % of control

C[C@]12CCC(=O)C=C1CC[C@@H]1[C@@H]2[C@@H](O)C[C@@]2(C)[C@H]1CC[C@]2(O)C(=O)COC(=O)c1ccc([N+](=O)[O-])cc1Cl
inactive: endpoint: mean survival time, dose: 100.0 mg/kg/injection, schedule: Q01DX001 (sc), vehicle: steriod suspending solution 101 % of control | endpoint: mean survival time, dose: 200.0 mg/kg/injection, schedule: Q01DX001 (sc), vehicle: steriod suspending solution 101 % of control | endpoint: mean survival time, dose: 400.0 mg/kg/injection, schedule: Q01DX001 (sc), vehicle: steriod suspending solution 97 % of control

O=[N+]([O-])c1ccc([As+](c2ccccc2)(c2ccccc2)c2ccccc2)cc1
inactive: endpoint: mean survival time, dose: 10.0 mg/kg/injection, schedule: Q01DX001 (ip), vehicle: saline 88 % of control | endpoint: mean survival time, dose: 20.0 mg/kg/injection, schedule: Q01DX001 (ip), vehicle: saline 92 % of control

Oc1ccc(C(c2ccc(O)c(Br)c2)c2ccccn2)cc1Br
inactive: endpoint: mean survival time, dose: 100.0 mg/kg/injection, schedule: Q04DX003 (ip), vehicle: Klucel (hydroxypropylcellulose) (HPC) 100 % of control | endpoint: mean survival time, dose: 200.0 mg/kg/injection, schedule: Q04DX003 (ip), vehicle: Klucel (hydroxypropylcellulose) (HPC) 98 % of control | endpoint: mean survival time, dose: 400.0 mg/kg/injection, schedule: Q04DX003 (ip), vehicle: Klucel (hydroxypropylcellulose) (HPC) 96 % of control

Cc1cc(O)c([N+](=O)[O-])c(=O)o1 (tested in a mixture with another compound)
inactive: endpoint: mean survival time, dose: 100.0 mg/kg/injection, schedule: Q04DX002 (ip), vehicle: Klucel (hydroxypropylcellulose) (HPC) 108 % of control | endpoint: mean survival time, dose: 200.0 mg/kg/injection, schedule: Q04DX002 (ip), vehicle: Klucel (hydroxypropylcellulose) (HPC) 97 % of control | endpoint: mean survival time, dose: 400.0 mg/kg/injection, schedule: Q04DX002 (ip), vehicle: Klucel (hydroxypropylcellulose) (HPC) 87 % of control

COc1ccccc1P(c1ccccc1OC)c1ccccc1OC
inactive: [4] 95 % of control | endpoint: mean survival time, dose: 100.0 mg/kg/injection, schedule: Q04DX003 (ip), vehicle: saline 113 % of control | endpoint: mean survival time, dose: 200.0 mg/kg/injection, schedule: Q01DX009 (ip), vehicle: saline 92 % of control | endpoint: mean survival time, dose: 200.0 mg/kg/injection, schedule: Q04DX003 (ip), vehicle: saline 102 % of control | endpoint: mean survival time, dose: 400.0 mg/kg/injection, schedule: Q01DX009 (ip), vehicle: saline 98 % of control | endpoint: mean survival time, dose: 400.0 mg/kg/injection, schedule: Q04DX003 (ip), vehicle: saline 101 % of control

O=C(c1cccc([N+](=O)[O-])c1)c1ccc(O)cc1O
inactive: endpoint: mean survival time, dose: 100.0 mg/kg/injection, schedule: Q01DX001 (ip), vehicle: other 103 % of control | endpoint: mean survival time, dose: 100.0 mg/kg/injection, schedule: Q04DX003 (ip), vehicle: other 103 % of control | endpoint: mean survival time, dose: 200.0 mg/kg/injection, schedule: Q01DX001 (ip), vehicle: other 95 % of control | endpoint: mean survival time, dose: 200.0 mg/kg/injection, schedule: Q04DX003 (ip), vehicle: other 100 % of control | endpoint: mean survival time, dose: 400.0 mg/kg/injection, schedule: Q01DX001 (ip), vehicle: other 95 % of control | endpoint: mean survival time, dose: 400.0 mg/kg/injection, schedule: Q04DX003 (ip), vehicle: other 100 % of control

[I][Hg][CH2]C1COC([CH2][Hg][I])CO1 (centres undefined)
inactive: endpoint: mean survival time, dose: 6.25 mg/kg/injection, schedule: Q01DX010 (ip), vehicle: saline 98 % of control | endpoint: mean survival time, dose: 12.5 mg/kg/injection, schedule: Q01DX009 (ip), vehicle: saline 97 % of control and 100 % of control | endpoint: mean survival time, dose: 12.5 mg/kg/injection, schedule: Q01DX010 (ip), vehicle: saline 106 % of control | endpoint: mean survival time, dose: 25.0 mg/kg/injection, schedule: Q01DX009 (ip), vehicle: saline 96 % of control and 101 % of control | endpoint: mean survival time, dose: 25.0 mg/kg/injection, schedule: Q01DX010 (ip), vehicle: saline 110 % of control | endpoint: mean survival time, dose: 50.0 mg/kg/injection, schedule: Q01DX009 (ip), vehicle: saline 93 % of control and 92 % of control | endpoint: mean survival time, dose: 50.0 mg/kg/injection, schedule: Q01DX010 (ip), vehicle: saline 97 % of control | [4] 93 % of control and 97 % of control | endpoint: median survival time, dose: 12.5 mg/kg/injection, schedule: Q01DX009 (ip), vehicle: saline 93 % of control | endpoint: median survival time, dose: 25.0 mg/kg/injection, schedule: Q01DX009 (ip), vehicle: saline 93 % of control | endpoint: median survival time, dose: 50.0 mg/kg/injection, schedule: Q01DX009 (ip), vehicle: saline 93 % of control

Cc1cccc(NC(=O)NCCOC(=O)OCCNC(=O)Nc2cccc(C)c2C)c1C
inactive: endpoint: mean survival time, dose: 100.0 mg/kg/injection, schedule: Q01DX009 (ip), vehicle: saline with Tween-80 97 % of control | [1] 91 % of control | endpoint: mean survival time, dose: 200.0 mg/kg/injection, schedule: Q01DX009 (ip), vehicle: saline with Tween-80 98 % of control | [2] 91 % of control | endpoint: mean survival time, dose: 400.0 mg/kg/injection, schedule: Q01DX009 (ip), vehicle: saline with Tween-80 97 % of control | [3] 106 % of control
